Measurements reported in US8993604B2, “Treatment and prevention of dengue virus infections” (Siga Technologies, Inc., priority 2009, dated 2015).
Read-outs that look alike come from different tables or passages of the source.

Test system: Dengue-2 (Strain New Guinea C)
Experiment: Viral yield assay in Vero cells
Assay type: cell-based
Conditions: Dengue virus, read-out: Activity (anti-dengue 2 viral activity, EC50 class)
Protocol: Compounds that were active in the primary screen were tested for activity in viral yield assays. […] Vero cells in 12-well plates were infected with dengue-2 virus at a multiplicity of infection (MOI) of 0.1, treated with compound (or DMSO as a control), incubated at 37° C., harvested 48 hours post infection and titered on Vero cells as described above. The EC50 was calculated through ExcelFit. Activities against other serotypes of dengue virus were determined in a similar way.

[1] = Vero cells, MOI 0.1, harvested 48 hours post infection

Compound `CCCCOc1cccc(C(=O)Nc2ccccc2-c2nc3ccccc3s2)c1` [Compound 106, N-(2-Benzothiazol-2-yl-phenyl)-3-butoxy-benzamide] has an EC50 [1] of over 25 µM.

In the case of `COc1ccc(C(=O)Nc2ccc(-c3nc4ccccc4s3)c(O)c2)cc1OC` [Compound 27, N-(4-Benzothiazol-2-yl-3-hydroxy-phenyl)-3,4-dimethoxy-benzamide], the EC50 [1] is reported as 10 to 25 µM.

`Cc1cc(C(=O)Nc2ccccc2-c2nc3ccccc3s2)ccc1[N+](=O)[O-]` [Compound 115, N-(2-Benzothiazol-2-yl-phenyl)-3-methyl-4-nitro-benzamide] was tested, and the EC50 [1] was over 25 µM.

Compound `O=C(Nc1ccc(-c2nc3ccccc3s2)cc1)c1c(F)c(F)c(F)c(F)c1F` [Compound 36, N-(4-Benzothiazol-2-yl-phenyl)-2,3,4,5,6-pentafluoro-benzamide] has an EC50 [1] of 10 to 25 µM.

`O=C(Nc1ccccc1-c1nc2ccccc2s1)c1ccccc1F` [Compound 93, N-(2-Benzothiazol-2-yl-phenyl)-2-fluoro-benzamide] was tested, and the EC50 [1] was over 25 µM.

With `COc1cc(C(=O)Nc2ccc(-c3nc4ccccc4s3)cc2)cc(OC)c1OC` [Compound 48, N-(4-Benzothiazol-2-yl-phenyl)-3,4,5-trimethoxy-benzamide] the EC50 [1] was over 25 µM.

In the case of `Cc1ccc2nc(-c3ccc(NC(=O)c4ccc(CN5CCOCC5)cc4)cc3)sc2c1` [Compound 29, N-[4-(6-Methyl-benzothiazol-2-yl)-phenyl]-4-morpholin-4-ylmethyl-benzamide], the EC50 [1] is reported as 10 to 25 µM.

Work on `Cc1ccc2sc(-c3ccc(NC(=O)c4ccc(Cl)cc4)cc3)nc2c1` [Compound 42, 4-Chloro-N-[4-(5-methyl-benzothiazol-2-yl)-phenyl]-benzamide] yielded an EC50 [1] of over 25 µM.

`Cc1cc(C(=O)Nc2ccc(-c3nc4ccccc4s3)cc2)ccc1[N+](=O)[O-]` [Compound 85, N-(4-Benzothiazol-2-yl-phenyl)-3-methyl-4-nitro-benzamide] showed an EC50 [1] of over 25 µM.

`O=C(Nc1ccc(-c2nc3ccccc3s2)c(Cl)c1)c1ccc(F)cc1` [Compound 123, N-(4-Benzothiazol-2-yl-3-chloro-phenyl)-4-fluoro-benzamide] showed an EC50 [1] of over 25 µM.

With `Cc1ccc2nc(-c3ccc(NC(=O)c4ccccc4C(=O)O)cc3)sc2c1` [Compound 126, N-[4-(6-Methyl-benzothiazol-2-yl)-phenyl]-phthalamic acid] the EC50 (Vero, 48 h) was over 25 µM.

`COc1ccccc1C(=O)Nc1cccc(-c2nc3ccccc3s2)c1` [Compound 4, N-(3-Benzothiazol-2-yl-phenyl)-2-methoxy-benzamide] was tested, and the EC50 [1] was under 1 µM.

With `COc1ccc(C(=O)Nc2cccc(-c3nc4ccccc4s3)c2)cc1[N+](=O)[O-]` [Compound 84, N-(3-Benzothiazol-2-yl-phenyl)-4-methoxy-3-nitro-benzamide] the EC50 [1] was over 25 µM.

Work on `Cc1ccc(C(=O)Nc2ccc(-c3nc4ccc(C)cc4s3)cc2)c(Cl)c1` [Compound 87, 2-Chloro-4-methyl-N-[4-(6-methyl-benzothiazol-2-yl)-phenyl]-benzamide] yielded an EC50 [1] of over 25 µM.

`COc1ccc(-c2nc3ccccc3s2)cc1NC(=O)c1ccc([N+](=O)[O-])cc1Cl` [Compound 15, N-(5-Benzothiazol-2-yl-2-methoxy-phenyl)-2-chloro-4-nitro-benzamide] showed an EC50 [1] of 1 to 10 µM.

With `Cc1cc(C)cc(C(=O)Nc2ccc(-c3nc4ccccc4s3)cc2C)c1` [Compound 38, N-(4-Benzothiazol-2-yl-2-methyl-phenyl)-3,5-dimethyl-benzamide] the EC50 [1] was 10 to 25 µM.

For `COc1ccccc1C(=O)Nc1ccccc1-c1nc2ccccc2s1` [Compound 112, N-(2-Benzothiazol-2-yl-phenyl)-2-methoxy-benzamide], the EC50 [1] was over 25 µM.

`O=C(Nc1ccc(O)c(-c2nc3ccccc3s2)c1)c1ccc([N+](=O)[O-])cc1` [Compound 53, N-(3-Benzothiazol-2-yl-4-hydroxy-phenyl)-4-nitro-benzamide] gave an EC50 [1] of over 25 µM.

Compound `CCC(C)Oc1ccc(C(=O)Nc2ccccc2-c2nc3ccccc3s2)cc1` (stereo not shown) [Compound 101, N-(2-Benzothiazol-2-yl-phenyl)-4-sec-butoxy-benzamide] has an EC50 [1] of over 25 µM.

Work on `COc1ccc(C(=O)Nc2ccc(-c3nc4ccccc4s3)cc2)cc1[N+](=O)[O-]` [Compound 88, N-(4-Benzothiazol-2-yl-phenyl)-4-methoxy-3-nitro-benzamide] yielded an EC50 [1] of over 25 µM.

With `CC(=O)Oc1cccc(C(=O)Nc2ccc(-c3nc4ccccc4s3)cc2)c1` [Compound 30, Acetic acid 3-(4-benzothiazol-2-yl-phenylcarbamoyl)-phenyl ester] the EC50 [1] was 10 to 25 µM.

For `O=C(Nc1ccccc1-c1nc2ccccc2s1)c1ccccc1[N+](=O)[O-]` [Compound 34, N-(2-Benzothiazol-2-yl-phenyl)-2-nitro-benzamide], the EC50 [1] was 10 to 25 µM.

Compound `Cc1ccc(C(=O)Nc2ccccc2-c2nc3ccccc3s2)cc1[N+](=O)[O-]` [Compound 107, N-(2-Benzothiazol-2-yl-phenyl)-4-methyl-3-nitro-benzamide] has an EC50 [1] of over 25 µM.

`COc1ccc(C(=O)Nc2ccc(-c3nc4ccccc4s3)c(Cl)c2)cc1OC` [Compound 5, N-(4-Benzothiazol-2-yl-3-chloro-phenyl)-3,4-dimethoxy-benzamide] gave an EC50 [1] of under 1 µM.

With `COc1ccc(C(=O)Nc2cccc(-c3nc4ccccc4s3)c2)cc1` [Compound 91, N-(3-Benzothiazol-2-yl-phenyl)-4-methoxy-benzamide] the EC50 [1] was over 25 µM.

Compound `O=C(Nc1ccccc1-c1nc2ccccc2s1)c1cccc(Cl)c1Cl` [Compound 97, N-(2-Benzothiazol-2-yl-phenyl)-2,3-dichloro-benzamide] has an EC50 [1] of over 25 µM.

In the case of `Cc1ccc2nc(-c3ccc(NC(=O)c4ccc(S(=O)(=O)N5CCc6ccccc65)cc4)cc3)sc2c1` [Compound 41, 4-(2,3-Dihydro-indole-1-sulfonyl)-N-[4-(6-methyl-benzothiazol-2-yl)-phenyl]-benzamide], the EC50 [1] is reported as over 25 µM.

`COc1cc(C(=O)Nc2cccc(-c3nc4ccccc4s3)c2C)cc(OC)c1OC` [Compound 69, N-(3-Benzothiazol-2-yl-2-methyl-phenyl)-3,4,5-trimethoxy-benzamide] gave an EC50 [1] of over 25 µM.

In the case of `O=C(Nc1ccccc1-c1nc2ccccc2s1)c1cccc(OCc2ccccc2)c1` [Compound 111, N-(2-Benzothiazol-2-yl-phenyl)-3-benzyloxy-benzamide], the EC50 [1] is reported as over 25 µM.

Work on `O=C(Nc1cccc(-c2nc3ccccc3s2)c1)c1ccccc1I` [Compound 83, N-(3-Benzothiazol-2-yl-phenyl)-2-iodo-benzamide] yielded an EC50 [1] of over 25 µM.

In the case of `O=C(Nc1ccc(-c2nc3ccccc3s2)c(O)c1)c1cccc(F)c1` [Compound 24, N-(4-Benzothiazol-2-yl-3-hydroxy-phenyl)-3-fluoro-benzamide], the EC50 [1] is reported as 10 to 25 µM.

Work on `Cc1c(C(=O)Nc2ccc(-c3nc4ccccc4s3)c(O)c2)cccc1[N+](=O)[O-]` [Compound 78, N-(4-Benzothiazol-2-yl-3-hydroxy-phenyl)-2-methyl-3-nitro-benzamide] yielded an EC50 [1] of over 25 µM.

`CCCOc1cccc(C(=O)Nc2cc(-c3nc4ccccc4s3)ccc2C)c1` [Compound 74, N-(5-Benzothiazol-2-yl-2-methyl-phenyl)-3-propoxy-benzamide] was tested, and the EC50 [1] was over 25 µM.

For `COc1ccc(C(=O)Nc2ccc(-c3nc4ccccc4s3)c(O)c2)cc1[N+](=O)[O-]` [Compound 60, N-(4-Benzothiazol-2-yl-3-hydroxy-phenyl)-4-methoxy-3-nitro-benzamide], the EC50 [1] was over 25 µM.

For `O=C(Nc1ccc(-c2nc3ccccc3s2)cc1)c1ccc(S(=O)(=O)N2CCCCC2)cc1` [Compound 17, N-(4-Benzothiazol-2-yl-phenyl)-4-(piperidine-1-sulfonyl)-benzamide], the EC50 (Vero, 48 h) was 10 to 25 µM.

`COC(=O)c1cc(C(=O)Nc2ccc(-c3nc4ccc(C)cc4s3)cc2)cc([N+](=O)O)c1` [Compound 81, N-[4-(6-Methyl-benzothiazol-2-yl)-phenyl]-5-nitro-isophthalamic acid methyl ester] gave an EC50 [1] of over 25 µM.

Compound `COc1c(Cl)cc(C(=O)Nc2cc(-c3nc4ccccc4s3)ccc2Cl)cc1Cl` [Compound 77, N-(5-Benzothiazol-2-yl-2-chloro-phenyl)-3,5-dichloro-4-methoxy-benzamide] has an EC50 [1] of over 25 µM.

`COc1cccc(C(=O)Nc2ccc(O)c(-c3nc4ccccc4s3)c2)c1` [Compound 58, N-(3-Benzothiazol-2-yl-4-hydroxy-phenyl)-3-methoxy-benzamide] was tested, and the EC50 [1] was over 25 µM.

Work on `COc1cccc(OC)c1C(=O)Nc1ccc(Cl)c(-c2nc3ccccc3s2)c1` [Compound 118, N-(3-Benzothiazol-2-yl-4-chloro-phenyl)-2,6-dimethoxy-benzamide] yielded an EC50 [1] of over 25 µM.

`COc1c(Cl)cc(C(=O)Nc2ccccc2-c2nc3ccccc3s2)cc1Cl` [Compound 108, N-(2-Benzothiazol-2-yl-phenyl)-3,5-dichloro-4-methoxy-benzamide] showed an EC50 [1] of over 25 µM.

Compound `COc1cc(C(=O)Nc2cc(-c3nc4ccccc4s3)ccc2Cl)cc(OC)c1OC` [Compound 70, N-(5-Benzothiazol-2-yl-2-chloro-phenyl)-3,4,5-trimethoxy-benzamide] has an EC50 [1] of over 25 µM.

Work on `COc1ccc(Br)cc1C(=O)Nc1ccc(-c2nc3ccccc3s2)cc1` [Compound 28, N-(4-Benzothiazol-2-yl-phenyl)-5-bromo-2-methoxy-benzamide] yielded an EC50 [1] of 10 to 25 µM.

`COc1cc(C(=O)Nc2cc(-c3nc4ccccc4s3)ccc2C)cc(OC)c1OC` [Compound 51, N-(5-Benzothiazol-2-yl-2-methyl-phenyl)-3,4,5-trimethoxy-benzamide] showed an EC50 [1] of over 25 µM.

`CCOc1ccc(C(=O)Nc2cccc(-c3nc4ccccc4s3)c2C)cc1[N+](=O)O` [Compound 25, N-(3-Benzothiazol-2-yl-2-methyl-phenyl)-4-ethoxy-3-nitro-benzamide] was tested, and the EC50 [1] was 10 to 25 µM.

For `O=C(Nc1cccc(-c2nc3ccccc3s2)c1)c1cc(I)ccc1I` [Compound 45, N-(3-Benzothiazol-2-yl-phenyl)-2,5-diiodo-benzamide], the EC50 [1] was over 25 µM.

With `COc1cccc(OC)c1C(=O)Nc1cccc(-c2nc3ccccc3s2)c1` [Compound 13, N-(3-Benzothiazol-2-yl-phenyl)-2,6-dimethoxy-benzamide] the EC50 [1] was 1 to 10 µM.
